Measurements: patent US8871681B2, “Herbicidal compositions comprising 4-amino-3-chloro-5-fluoro-6-(4-chloro-2-fluoro-3-methoxyphenyl) pyridine-2-carboxylic acid or a derivative thereof and certain sulfonylureas” (Dow AgroSciences LLC, priority 2012, dated 2014)

Experiments:
[1] = test system: ECHCG (Echinochloa crus-galli, barnyardgrass); experiment: In-water applied weed control, transplanted paddy rice, greenhouse (Example II); format: in vivo, Echinochloa crus-galli (L.) Beauv.
Method: Weed seeds or nutlets of the desired test plant species were planted in puddled soil (mud) prepared by mixing a shredded, non-sterilized mineral soil (50.5 percent silt, 25.5 percent clay, and 24 percent sand, with a pH of about 7.6 and an organic matter content of about 2.9 percent) and water at a 1:1 volumetric ratio. The prepared mud was dispensed in 365 mL aliquots into 16-ounce (oz.) non-perforated plastic pots with a surface area of 86.59 square centimeters (cm^2) leaving a headspace of 3 centimeters (cm) in each pot. Rice seeds were planted in Sun Gro MetroMix® 306 planting mixture, which typically has a pH of 6.0 to 6.8 and an organic matter content of about 30 percent, in plastic plug trays. Seedlings at the second or third leaf stage of growth were transplanted into 860 mL of mud contained in 32-oz. non-perforated plastic pots with a surface area of 86.59 cm^2 4 days prior to herbicide application. The paddy was created by filling the headspace of the pots with 2.5 to 3 cm of water. When required to ensure good germination and healthy plants, a fungicide treatment and/or other chemical or physical treatment was applied. The plants were grown for 4-22 days in a greenhouse with an approximate 14 h photoperiod which was maintained at about 29′C during the day and 26° C. during the night. Nutrients were added as Osmocote® (19:6:12, N:P:K+minor nutrients) at 2 g per 16-oz. pot and 4 g per 32-oz. pot. Water was added on a regular basis to maintain the paddy flood, and supplemental lighting was provided with overhead metal halide 1000-Watt lamps as necessary. The plants were employed for testing when they reached the first through fourth true leaf stage.
Treatments consisted of the acid or esters of 4-amino-3-chloro-5-fluoro-6-(4-chloro-2-fluoro-3-methoxy-phenyl)pyridine-2-carboxylic acid (compound A) each formulated as an SC and various herbicidal components alone and in combination. Forms of compound A were applied on an acid equivalent basis.
Other herbicidal components were applied on an active ingredient basis and included acetolactate synthase (ALS)-inhibiting herbicides (sulfonylurea chemical class), azimsulfuron formulated as Gulliver®, bensulfuron-methyl formulated as Londax® 60DF, cyclosulfamuron (technical grade materail), ethoxysulfuron formulated as Sunrice® 15 WDG, flucetosulfuron formulated as Sukedachi® 1KG G, imazosulfuron formulated as Brazzos®, metsulfuron-methyl formulated as Lorate®, nicosulfuron formulated as Accent®, orthosulfamuron formulated as Strada® WG, propyrisulfuron formulated as Zeta One®, and rimsulfuron formulated as Matrix® WG.
Treatment requirements for each compound or herbicidal component were calculated based upon the rates being tested, the concentration of active ingredient or acid equivalent in the formulation, an application volume of 2 mL per component per pot, and an application area of 86.59 cm^2 per pot.
For formulated compounds, a measured amount was placed in an individual 100 or 200 mL glass vial and was dissolved in a volume of 1.25% (v/v) Agri-Dex® crop oil concentrate to obtain application solutions.
For technical grade compounds, a weighed amount was placed in an individual 100 to 200 mL glass vial and was dissolved in a volume of acetone to obtain concentrated stock solutions. […]

[2] = test system: VERPE (Veronica persica, bird's-eye speedwell); experiment: Post-emergence foliar-applied weed control in cereal crops, greenhouse (Example III); format: in vivo, Veronica persica Poir.
Method in brief: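 Greenhouse plants at the second or third true leaf stage (14 hour photoperiod, about 18/17 °C) were track-sprayed at 187 L/ha with Compound A SC, a second cereal herbicide, or their combinations, using 1.25% v/v crop oil concentrate. Injury was scored visually at 20-22 days against solvent-blank controls on a 0–100% scale. Expected mixture effects were calculated with Colby's equation.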

[3] = test system: VIOTR (Viola tricolor, wild pansy); experiment: as above; format: in vivo, Viola tricolor (L.); conditions: 8.75 gai/ha alone
Method: Seeds of the desired test plant species were planted in Sun Gro MetroMix® 306 planting mixture, which typically has a pH of 6.0 to 6.8 and an organic matter content of about 30 percent, in plastic pots with a surface area of 103.2 square centimeters (cm^2). When required to ensure good germination and healthy plants, a fungicide treatment and/or other chemical or physical treatment was applied. The plants were grown for 7-36 days in a greenhouse with an approximate 14 hour photoperiod which was maintained at about 18° C. during the day and 17° C. during the night. Nutrients and water were added on a regular basis and supplemental lighting was provided with overhead metal halide 1000-Watt lamps as necessary. The plants were employed for testing when they reached the second or third true leaf stage.
Treatments consisted of the benzyl ester of 4-amino-3-chloro-5-fluoro-6-(4-chloro-2-fluoro-3-methoxy-phenyl)pyridine-2-carboxylic acid (Compound A), formulated as an SC (suspension concentrate), and a second cereal herbicide alone and in combination.
Measured aliquot of benzyl ester of 4-amino-3-chloro-5-fluoro-6-(4-chloro-2-fluoro-3-methoxy-phenyl)pyridine-2-carboxylic acid (Compound A) was placed in 25 milliliter (mL) glass vials and diluted in a volume of 1.25% (v/v) Agri-dex crop oil concentrated to obtain stock solutions. Compound requirements are based upon a 12 mL application volume at a rate of 187 liters per hectare (L/ha). Spray solutions of the second cereal herbicide and experimental compound mixtures were prepared by adding the stock solutions to the appropriate amount of dilution solution to form 12 mL spray solution with active ingredients in two- and three-way combinations. Formulated compounds were applied to the plant material with an overhead Mandel track sprayer equipped with an 8002E nozzle calibrated to deliver 187 L/ha over an application area of 0.503 square meters (m^2) at a spray height of 18 inches (46 cm) above average plant canopy. Control plants were sprayed in the same manner with the solvent blank.
The treated plants and control plants were placed in a greenhouse as described above and watered by sub-irrigation to prevent wash-off of the test compounds. After 20-22 days, the condition of the test plants as compared with that of the control plants was determined visually and scored on a scale of 0 to 100 percent where 0 corresponds to no injury and 100 corresponds to complete kill.
Colby's equation was used to determine the herbicidal effects expected from the mixtures (Colby, S. R. 1967. Calculation of the synergistic and antagonistic response of herbicide combinations. Weeds 15:20-22.).
The following equation was used to calculate the expected activity of mixtures containing two active ingredients, A and B: Expected=A+B−(A×B/100)

`COc1c(Cl)ccc(-c2nc(C(=O)OCc3ccccc3)c(Cl)c(N)c2F)c1F` [Compound A Benzyl Ester] was tested. Which “Visual Weed Control (%) - 20 DAA ECHCG Obs” value (shortened to “Visual Weed Control (%)”) ([1]; Table 50, 4.38 gae/ha alone) did it give?
The value was 15%.

And the “Visual Weed Control (%)” value ([1]; Table 50, 8.75 gae/ha alone)?
Its value is 20%.

And the “Visual Weed Control (%)” value ([1]; Table 50, 17.5 gae/ha alone)?
Its value is 40%.

And the “Weed Control VERPE Obs” value ([2]; Table 51, after 20-22 days, 8.75 gai/ha alone)?
The value was 50%.

And the “Weed Control VERPE Obs” value ([2]; Table 53, after 20-22 days, 8.75 gai/ha alone)?
Its value is 50%.

What about the “Weed Control VERPE Obs” value ([2]; Table 55, after 20-22 days, 8.75 gai/ha alone) of the same molecule?
Its value is 50%.

What about the “Weed Control VERPE Obs” value ([2]; Table 57, after 20-22 days, 8.75 gai/ha Compound A Benzyl Ester alone) of the same molecule?
The value was 50%.

What about the “Weed Control VIOTR Obs” value ([3]; Table 52, after 20-22 days) of the same molecule?
The value was 50%.

And the “Weed Control VIOTR Obs” value ([3]; Table 54, after 20-22 days)?
The value was 50%.
